# Results taken from the supplement of paper PMC10307832.
# Experiments:
# Test in all cases: relative viability (nuclei count vs DMSO), 5 days (fraction); higher = more cells survive
# NCI-H596 = tested on: NCI-H596
# Summary of the method: (§1)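 Lung cancer cell lines, seeded in 1536-well plates, were treated the following day by pin tool with a single drug or with five library-drug doses (not always all listed) in √10 steps on top of a fixed anchor-drug dose. Cells were fixed and nuclei stained in one step after 5 days, and nuclei were counted. Relative viability is the nuclei count for treated wells divided by that for vehicle wells, reported as medians of duplicate plates.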
# A-427 = tested on: A-427
# Summary of the method: as §1
# RERF-LC-KJ = tested on: RERF-LC-KJ
# Summary of the method: as §1
# BEN = tested on: BEN
# Summary of the method: as §1
# NCI-H2085 = tested on: NCI-H2085
# Summary of the method: as §1
# LCLC-103H = tested on: LCLC-103H
# Summary of the method: as §1
# NCI-H520 = tested on: NCI-H520
# Summary of the method: as §1
# NCI-H661 = tested on: NCI-H661
# Summary of the method: as §1
# ABC-1 = tested on: ABC-1
# Summary of the method: as §1
# NCI-H460 = tested on: NCI-H460
# Summary of the method: as §1
# NCI-H1666 = tested on: NCI-H1666
# Summary of the method: as §1
# HARA = tested on: HARA
# Summary of the method: as §1
# LOU-NH91 = tested on: LOU-NH91
# Summary of the method: as §1
# NCI-H1651 = tested on: NCI-H1651
# Summary of the method: as §1
# NCI-H838 = tested on: NCI-H838
# Summary of the method: as §1
# NCI-H1734 = tested on: NCI-H1734
# Summary of the method: as §1
# NCI-H1975 = tested on: NCI-H1975
# Summary of the method: as §1
# CAL-12T = tested on: CAL-12T
# Summary of the method: as §1
# NCI-H647 = tested on: NCI-H647
# Summary of the method: as §1
# NCI-H727 = tested on: NCI-H727
# Summary of the method: as §1
# NCI-H2126 = tested on: NCI-H2126
# Summary of the method: as §1
structure (smiles),measurement,setting,value
Cc1csc(=NC2CCCCC2)n1/N=C/c1ccc(O)c(O)c1O [MIM1] + CC(C)C[C@H](NC(=O)[C@H](Cc1ccccc1)NC(=O)c1cnccn1)B(O)O [Bortezomib] (partner 0.002 µM),relative viability,NCI-H596; first compound 0.6325 µM,1.16
same,relative viability,NCI-H596; first compound 2 µM,0.988
same,relative viability,NCI-H596; first compound 6.325 µM,0.999
same,relative viability,NCI-H596; first compound 20 µM,0.951
same,relative viability,A-427; first compound 0.2 µM,0.975
same,relative viability,A-427; first compound 0.6325 µM,0.865
same,relative viability,A-427; first compound 2 µM,0.972
same,relative viability,A-427; first compound 6.325 µM,0.847
same,relative viability,A-427; first compound 20 µM,0.234
same,relative viability,RERF-LC-KJ; first compound 0.2 µM,1.08
same,relative viability,RERF-LC-KJ; first compound 0.6325 µM,1.29
same,relative viability,RERF-LC-KJ; first compound 2 µM,0.852
same,relative viability,RERF-LC-KJ; first compound 6.325 µM,0.601
same,relative viability,RERF-LC-KJ; first compound 20 µM,0.264
same,relative viability,BEN; first compound 0.2 µM,0.719
same,relative viability,BEN; first compound 0.6325 µM,1.01
same,relative viability,BEN; first compound 2 µM,0.929
same,relative viability,BEN; first compound 6.325 µM,0.735
same,relative viability,BEN; first compound 20 µM,0.183
same,relative viability,NCI-H2085; first compound 0.2 µM,1.08
same,relative viability,NCI-H2085; first compound 0.6325 µM,0.994
same,relative viability,NCI-H2085; first compound 2 µM,0.986
same,relative viability,NCI-H2085; first compound 6.325 µM,0.952
same,relative viability,NCI-H2085; first compound 20 µM,0.989
same,relative viability,LCLC-103H; first compound 0.2 µM,0.974
same,relative viability,LCLC-103H; first compound 0.6325 µM,0.959
same,relative viability,LCLC-103H; first compound 2 µM,1.05
same,relative viability,LCLC-103H; first compound 6.325 µM,0.955
same,relative viability,LCLC-103H; first compound 20 µM,0.938
same,relative viability,NCI-H520; first compound 0.2 µM,0.721
same,relative viability,NCI-H520; first compound 0.6325 µM,0.353
same,relative viability,NCI-H520; first compound 2 µM,0.684
same,relative viability,NCI-H520; first compound 6.325 µM,0.401
same,relative viability,NCI-H520; first compound 20 µM,0.184
same,relative viability,NCI-H661; first compound 0.2 µM,0.843
same,relative viability,NCI-H661; first compound 0.6325 µM,0.861
same,relative viability,NCI-H661; first compound 2 µM,0.648
same,relative viability,NCI-H661; first compound 6.325 µM,0.453
same,relative viability,NCI-H661; first compound 20 µM,0.221
same,relative viability,ABC-1; first compound 0.2 µM,0.33
same,relative viability,ABC-1; first compound 0.6325 µM,0.299
same,relative viability,ABC-1; first compound 2 µM,0.298
same,relative viability,ABC-1; first compound 6.325 µM,0.309
same,relative viability,ABC-1; first compound 20 µM,0.231
same,relative viability,NCI-H460; first compound 0.2 µM,1.12
same,relative viability,NCI-H460; first compound 0.6325 µM,1.26
same,relative viability,NCI-H460; first compound 2 µM,0.604
same,relative viability,NCI-H460; first compound 6.325 µM,0.467
same,relative viability,NCI-H460; first compound 20 µM,0.0328
same,relative viability,NCI-H1666; first compound 0.2 µM,0.863
same,relative viability,NCI-H1666; first compound 0.6325 µM,0.916
same,relative viability,NCI-H1666; first compound 2 µM,0.722
same,relative viability,NCI-H1666; first compound 6.325 µM,0.568
same,relative viability,NCI-H1666; first compound 20 µM,0.249
same,relative viability,HARA; first compound 0.2 µM,1.09
same,relative viability,HARA; first compound 0.6325 µM,1.1
same,relative viability,HARA; first compound 2 µM,1.2
same,relative viability,HARA; first compound 6.325 µM,1.08
same,relative viability,HARA; first compound 20 µM,0.127
same,relative viability,LOU-NH91; first compound 0.2 µM,0.462
same,relative viability,LOU-NH91; first compound 0.6325 µM,0.53
same,relative viability,LOU-NH91; first compound 2 µM,0.447
same,relative viability,LOU-NH91; first compound 6.325 µM,0.35
same,relative viability,LOU-NH91; first compound 20 µM,0.267
same,relative viability,NCI-H1651; first compound 0.2 µM,0.92
same,relative viability,NCI-H1651; first compound 0.6325 µM,0.823
same,relative viability,NCI-H1651; first compound 2 µM,0.875
same,relative viability,NCI-H1651; first compound 6.325 µM,0.887
same,relative viability,NCI-H1651; first compound 20 µM,0.685
same,relative viability,NCI-H838; first compound 0.2 µM,0.869
same,relative viability,NCI-H838; first compound 0.6325 µM,0.808
same,relative viability,NCI-H838; first compound 2 µM,0.78
same,relative viability,NCI-H838; first compound 6.325 µM,0.53
same,relative viability,NCI-H838; first compound 20 µM,0.136
same,relative viability,NCI-H1734; first compound 0.2 µM,1.12
same,relative viability,NCI-H1734; first compound 0.6325 µM,0.799
same,relative viability,NCI-H1734; first compound 2 µM,0.868
same,relative viability,NCI-H1734; first compound 6.325 µM,0.404
same,relative viability,NCI-H1734; first compound 20 µM,0.159
same,relative viability,NCI-H1975; first compound 0.2 µM,0.428
same,relative viability,NCI-H1975; first compound 0.6325 µM,0.381
same,relative viability,NCI-H1975; first compound 2 µM,0.377
same,relative viability,NCI-H1975; first compound 6.325 µM,0.231
same,relative viability,NCI-H1975; first compound 20 µM,0.221
same,relative viability,CAL-12T; first compound 0.2 µM,1.01
same,relative viability,CAL-12T; first compound 2 µM,1.04
same,relative viability,CAL-12T; first compound 6.325 µM,0.867
same,relative viability,CAL-12T; first compound 20 µM,0.429
same,relative viability,NCI-H647; first compound 0.2 µM,1.05
same,relative viability,NCI-H647; first compound 0.6325 µM,0.878
same,relative viability,NCI-H647; first compound 2 µM,0.98
same,relative viability,NCI-H647; first compound 6.325 µM,0.769
same,relative viability,NCI-H647; first compound 20 µM,0.237
same,relative viability,NCI-H727; first compound 0.2 µM,0.671
same,relative viability,NCI-H727; first compound 0.6325 µM,0.785
same,relative viability,NCI-H727; first compound 2 µM,0.705
same,relative viability,NCI-H727; first compound 6.325 µM,0.602
same,relative viability,NCI-H727; first compound 20 µM,0.286
same,relative viability,NCI-H2126; first compound 0.2 µM,1.13
same,relative viability,NCI-H2126; first compound 0.6325 µM,1.1
same,relative viability,NCI-H2126; first compound 2 µM,1.13
same,relative viability,NCI-H2126; first compound 6.325 µM,1.03
same,relative viability,NCI-H2126; first compound 20 µM,1
